Like-named read-outs stand apart in the source and are kept apart here.
Legend:
CYP3A2 = CYP3A2 induction capacity in matured small hepatocyte-rich colonies (Western blot); format: cell-based, rat; details: 24 hours, matured hepatocytes = 100%, control (0.5% ethanol) 94.9
Method: (§1) About 200 to 250/cm^2 of the small hepatocyte colonies prepared in Example 2 were placed on a culture dish (diameter: 60 mm).
(§2) After the culture in a culture medium (1) (DMEM, 10% FBS, 10 mM nicotinamide, 1 mM ascorbic acid 2-phosphate, 10 ng/ml EGF, 10^−7 M dexamethasone, 0.5 μg/ml insulin, penicillin and streptomycin) for 12 to 24 hours, the culture medium was exchanged with a serum-free culture medium (2) (DMEM, 10 mM nicotinamide, 1 mM ascorbic acid 2-phosphate, 10 ng/ml EGF, 10^−7 M dexamethasone, 0.5 μg/ml insulin, penicillin, streptomycin and 1% DMSO). After the culture for additional 10 days while the culture medium was exchanged every other day, Matrigel diluted to 500 μg/ml with the culture medium was placed on the cells. 48 hours after the addition of Matrigel, the culture medium was exchanged, and the culture was continued by using DMSO-free culture medium (2) for 4 days. 6 days after the addition of Matrigel, drugs shown in the following Tables 3 to 6 were added in a concentration shown in the same Tables thereto, respectively. 24 hours after the addition of the drug, the cells were recovered.
(§3) After the proteins were separated with 10% SDS-PAGE, the intended protein was stained on the membrane by Western blot. The intensity of the band on the blot was digitized by a densitometer.
(§4) The primary antibodies used were goat anti-CYP2B 1 antibody (diluted to 1/300), goat anti-CYP3A2 antibody (diluted to 1/300), goat anti-CYP2E1 antibody (diluted to 1/1000) and goat anti-CYP4A1 antibody (diluted to 1/1000) (all bought from Daiichi Kagaku Yakuhin). The secondary antibodies were HRP-conjugated anti-goat/sheep Ig (diluted to 1/5000) bought from DAKO. The chromogenic substrate was Super Signal West Dura (chemiluminescence) purchased from Pierce.
(§5) Tables 3 to 6 show the relative activity of each enzyme as the induction capacity of each drug for the enzyme, wherein the activity of each enzyme in matured hepatocytes is defined as 100%. Pregnenolone was used in the form of a solution containing 0.5% ethanol, and clofibrate was used in the form of a solution containing 0.5% DMSO.

CYP2B1 = CYP2B1 induction capacity in matured small hepatocyte-rich colonies (Western blot); format: cell-based, rat; details: 24 hours after addition, matured hepatocytes = 100%, 0 mM gave 30.8
CYP4A1 = CYP4A1 induction capacity in matured small hepatocyte-rich colonies (Western blot); format: cell-based, rat; details: 24 hours, matured hepatocytes = 100%, control (0.5% DMSO) 74.1
CYP2E1 = details: 24 hours after addition, matured hepatocytes = 100%, 0 mM gave 74.1
Method: as §1, §2, §3, §4, §5

## CC(=O)[C@H]1CC[C@H]2[C@@H]3CC=C4C[C@@H](O)CC[C@]4(C)[C@H]3CC[C@]12C [Pregnenolone]
CYP3A2; 0.5 × 10^−3 mM in 0.5% ethanol
  CYP3A2 induction capacity (%): 115.5%
CYP3A2; 1.0 × 10^−3 mM in 0.5% ethanol
  CYP3A2 induction capacity (%): 141.0%
CYP3A2; 2.0 × 10^−3 mM in 0.5% ethanol
  CYP3A2 induction capacity (%): 148.1%
CYP3A2; 5.0 × 10^−3 mM in 0.5% ethanol
  CYP3A2 induction capacity (%): 153.2%

## CCC1(c2ccccc2)C(=O)NC(=O)NC1=O [Phenobarbital]
CYP2B1; 0.75 mM
  CYP2B1 induction capacity (%): 37.4%
CYP2B1; 1.5 mM
  CYP2B1 induction capacity (%): 47.9%
CYP2B1; 3.0 mM
  CYP2B1 induction capacity (%): 46.9%
CYP2B1; 4.5 mM
  CYP2B1 induction capacity (%): 55.0%

## CCOC(=O)C(C)(C)Oc1ccc(Cl)cc1 [Clofibrate]
CYP4A1; 0.1 mM in 0.5% DMSO
  CYP4A1 induction capacity (%): 76.5%
CYP4A1; 0.25 mM in 0.5% DMSO
  CYP4A1 induction capacity (%): 82.4%
CYP4A1; 0.5 mM in 0.5% DMSO
  CYP4A1 induction capacity (%): 98.8%
CYP4A1; 0.75 mM in 0.5% DMSO
  CYP4A1 induction capacity (%): 86.4%

## CCO [Ethanol]
CYP2E1; 250 mM
  CYP2E1 induction capacity (%): 76.5%
CYP2E1; 500 mM
  CYP2E1 induction capacity (%): 82.4%
CYP2E1; 750 mM
  CYP2E1 induction capacity (%): 98.8%
CYP2E1; 1000 mM
  CYP2E1 induction capacity (%): 86.4%

— US20060128015A1, “Small hepatocyte-rich colonies, process for preparing the colonies, process for maturating the colonies into liver tissue and method of estimating effects of drug by using matured small hepatocyte-rich colonies” (priority 2001, published 2006)
